Measurements: patent publication US20040067904A1, “Gene therapy for prostate cancer: sensibilization of cells to dna damaging drugs and radiation” (priority 2003, published 2004)

How the values were obtained:
[1] = test system: LNCaP cells stably transfected with pPSA (e/p)-DBD/F; assay: Androgen-regulated PARP-DBD expression (Western blot, RT-PCR, in situ immunofluorescence) in stably transfected LNCaP cells; type: cell-based, human; settings: R1881 0-10 nM, 24 hours, charcoal-stripped serum for seven days
Description: The androgen responsive prostate carcinoma LNCaP and androgen independent PC-3 cell lines were obtained from American Type Culture Collection (Manassas, Va.) and maintained by serial passage in DMEM supplemented with 10% fetal bovine serum, 100 units/ml penicillin, and 100 μg/ml streptomycin at 37° C. in an atmosphere of 5% CO2 in air. Cells subjected to androgen stimulation tests were maintained in media with 10% charcoal-stripped fetal bovine serum for seven days before the addition of synthetic androgen R1881 (Perkin Elmer Life Science). […]
RNA was isolated from cells using TRIzol Reagent (Gibco) according to manufacturer's protocol. […] The amplified RT-PCR products were analyzed by 1% agarose gel electrophoresis, visualized by ethidium bromide staining and photographed under UV illumination.
Immunodetection of PARP-DBD Flag-fusion protein in human prostate carcinoma cells was performed as previously described (Soldatenkov et al., Cancer J Sci. Am., 3: 13-20 (1997)). […] Insoluble material was removed by centrifugation at […] for 30 min at 16,000×g and protein concentrations were determined using the “Micro BCA protein assay” (Pierce). […] Signals were detected using the enhanced chemiluminescence system (Amersham). […]

LNCaP cells = assay: Annexin V cell death assay (flow cytometry); type: cell-based, human; settings: parental LNCaP cells and un-induced LNCaP-DBD sublines; etoposide 10 μM; 24 h
Description: Surface expression of phosphadtidyl serine was determined by Annexin V staining (Trevigen) according to the manufacturer's recommendations. Briefly, LNCaP cells (2-5×10^5) were harvested, washed in PBS and exposed to FITC-labeled Annexin V. To exclude staining of phosphadtidyl serine on the inner surface of the cell membrane, indicative of cytoplasmic membrane disintegration, cells were counterstained with propidium iodite. FITC-Annexin V and propidium iodite staining was determined using a FACStar Plus flow cytometer (Becton Dickinson FACS System). Apoptotic cells were defined as FITC positive and PI negative.

plasmid DNA fragments = assay: Atomic force microscopy of PARP / PARP-DBD interaction with DNA; type: binding
Description: DNA samples or PARP-DNA binding reaction product in Mg^2+containing buffer were deposited on an […] mica surface, allowed to adsorb for 1 min, rinsed with deionized water, and dried in a gentle nitrogen flow. The AFM images were obtained using a NanoScope IIIa instrument equipped with E-scanner (Digital Instruments, Santa Barbara, Calif.) operating in a tapping mode in air as described (Smulson et al., Cancer Res., 58: 3495-3498 (1998)). The tapping frequency of the 125 μm silicon cantilever was 300-400 KHz and the nominal scanning rate was set at 1-2 Hz. No less than 150 uncomplexed DNA molecules and 100 of PARP-DNA complexes were analyzed in each experiment.

## C[C@]1(O)CC[C@H]2[C@@H]3CCC4=CC(=O)CCC4=C3C=C[C@@]21C [R1881]
[1]
  stimulation of PARP-DBD expression at levels of mRNA and protein: dose-dependent stimulation

## COc1cc([C@@H]2c3cc4c(cc3[C@@H](O[C@@H]3O[C@@H]5CO[C@@H](C)O[C@H]5[C@H](O)[C@H]3O)[C@H]3COC(=O)[C@H]23)OCO4)cc(OC)c1O [etoposide]
LNCaP cells
  annexin V-binding activity (early apoptotic changes): only modest increase

## Poly(ADP-ribose) polymerase [recombinant full length PARP]
Plasmid DNA fragments; absence of NAD+
  binding to DNA fragments (AFM): bound plasmid DNA fragments and linked them into chainlike structures
Plasmid DNA fragments; presence of NAD+
  binding to DNA fragments (AFM): dissociated from the DNA fragments
